Reference: US7462644B2, “Therapeutic agents” (AstraZeneca AB, priority 2002, dated 2008)

Target: T1, human PPAR alpha (Homo sapiens, UniProt Q07869)
T1 sequence (Q07869 1-468): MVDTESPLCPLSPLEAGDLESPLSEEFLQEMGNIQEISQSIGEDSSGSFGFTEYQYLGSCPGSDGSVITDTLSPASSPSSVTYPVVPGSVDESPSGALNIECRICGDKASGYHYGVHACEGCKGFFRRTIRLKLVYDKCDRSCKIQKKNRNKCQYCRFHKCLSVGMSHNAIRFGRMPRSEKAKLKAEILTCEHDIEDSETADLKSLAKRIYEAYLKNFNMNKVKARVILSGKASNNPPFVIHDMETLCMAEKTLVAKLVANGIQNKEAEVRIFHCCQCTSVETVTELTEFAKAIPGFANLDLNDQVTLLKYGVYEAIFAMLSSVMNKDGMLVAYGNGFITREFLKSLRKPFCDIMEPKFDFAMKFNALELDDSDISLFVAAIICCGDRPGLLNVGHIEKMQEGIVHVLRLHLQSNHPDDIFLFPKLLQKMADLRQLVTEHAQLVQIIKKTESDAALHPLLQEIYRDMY
Assay: PPARα EC50 assay (assays described in WO03/051821)
Format: cell-based
Description: The compounds of the invention were tested in the assays described in WO03/051821.

`CCCCN(Cc1ccc(C(F)(F)F)cc1F)C(=O)COc1ccc(C[C@H](OCC)C(=O)O)cc1` [Example 1, (2S)-3-[4-(2-{Butyl[2-fluoro-4-(trifluoromethyl)benzyl]amino}-2-oxoethoxy)phenyl]-2-ethoxy propanoic Acid] was tested. Which EC50 did it give?
Its EC50 is 1 nM.

`CCO[C@@H](Cc1ccc(OCC(=O)N(CC)Cc2ccc(Cl)cc2)cc1)C(=O)O` [Example 2, (2S)-3-(4-{2-[(4-Chlorobenzyl)(ethyl)amino]-2-oxoethoxy}phenyl)-2-ethoxypropanoic Acid] was tested. Which EC50 did it give?
Its EC50 is 3 nM.

How did the EC50 turn out when `CCO[C@@H](Cc1ccc(OCC(=O)N(CC)Cc2ccc(OC(F)(F)F)cc2)cc1)C(=O)O` [Example 3] was run?
Its EC50 is 3 nM.

`CCCCN(Cc1ccc(C(F)(F)F)cc1)C(=O)COc1ccc(C[C@H](OCC)C(=O)O)cc1` [Example 5] was tested. Which EC50 did it give?
Its EC50 is 3 nM.

Which EC50 does the source give for `CCO[C@@H](Cc1ccc(OCC(=O)N(CC)Cc2ccc(C(F)(F)F)cc2)cc1)C(=O)O` [Example 4, (2S)-2-Ethoxy-3-[4-(2-{ethyl[4-(trifluoromethyl)benzyl]amino}-2-oxoethoxy)phenyl]propanoic Acid] here?
The EC50 was 5 nM.
